Measured values as given in patent publication US20100048704A1, “PHARMACEUTICAL AND NUTRACEUTICAL PRODUCTS COMPRISING VITAMIN K2” (NATTOPHARMA ASA, priority 2006, published 2010).

Legend:
[1] = Stability of K vitamins in cell culture media with no cells present; format: physicochemical; details: 1 μM of each vitamin, three growth media, over 48 hours
Protocol: Here we have checked the stability of the various forms of vitamin K (1 μM of each) in the three cell culture media with no cells present.

[2] = system: vascular smooth muscle cells, MG-63 cell line, HepG2 cell line; test: Cellular vitamin K uptake in three cell types; format: cell-based; details: for cellular uptake compared with other K vitamins: all cells, mixture containing 1 μmol/L of each vitamin
Protocol: (§1) This series of cell culture experiments describe vitamin K uptake and metabolism under various conditions. The following forms of vitamin K were compared: K1, MK-4, MK-7, MK-8 and MK-9. They were tested in three different cell types: the vascular smooth muscle cells, the osteoblast-like MG-63 cell line and the hepatocyte-like HepG2 cell line. In all experiments the vitamins were used as a mixture containing 1 μmol/L of each vitamin. All data are the means of triplicate experiments.
(§2) Cells were grown until 80% confluence after which vitamin K was added in different concentrations (see FIGS. 5A-C). The added vitamin K concentration is given as nmol/L of culture medium, the vitamin K recovered is given as nmol/g of cellular protein. Note the different scales for each vitamin.
Cellular uptake of K vitamins was followed in time. In all cases a mixture of the various K vitamins (1 μmol/L final concentration in the culture medium) was added to the cells after they had grown to 80% confluence. […] The mechanism behind this cellular preference for MK-7 is not quite clear.

[3] = system: vascular smooth muscle cells, MG-63 cell line, HepG2 cell line; test: K epoxide formation in the presence of warfarin (bypassing of warfarin) in three cell types; format: cell-based; details: for interference with warfarin: 10 μmol/L warfarin added 18 h before and present during vitamin K incubation
Protocol: as §1
(§3) Under normal conditions, all forms of vitamin K are taken up in their quinone form, and they are reduced into the hydroquinone before being active as a cofactor for the enzyme gammaglutamylcarboxylase. During the carboxylation they are oxidized into epoxides, which can be reduced by the membrane-bound enzyme VKOR. VKOR forms the target for drugs known as coumarin derivatives, which inactivate the enzyme and thus block the recycling of K epoxides. Vitamin K quinones (and not the epoxides) can be reduced by a second enzyme system, known as DT diaphorase. […] Coumarin derivatives are widely used as oral anticoagulants; their mode of action is based on the inhibition of clotting factor carboxylation in the liver. Interference with coumarin derivatives is thus a potential risk of vitamin K supplements. Therefore we have investigated whether and to which extend the various K vitamins interfere with warfarin. In the study described, 10 μmol/L of warfarin was added to the culture media 18 h before adding vitamin K. Also during incubation with K vitamins this concentration of warfarin was present.

[4] = system: MG63 cell line; test: K epoxide formation in the presence of warfarin in MG63; format: cell-based; details: 10 μmol/L warfarin
Protocol: as §1
as §3, with “In the study described, 10 μmol/L of warfarin was added to the culture media 18 h before adding vitamin K. Also during incubation with K vitamins this concentration of warfarin was present.” left out

[5] = system: vascular smooth muscle cells, MG-63 cell line, HepG2 cell line; test: K epoxide formation without warfarin under cell starvation (1% fetal calf serum); format: cell-based; details: no warfarin, fetal calf serum decreased to 1% (v/v)
Protocol: as §1
(§4) Since under standard cell culture conditions no epoxides are formed, we have applied sub-optimal growth conditions by decreasing the fetal calf serum in the culture medium to 1% (v/v). […] This was ruled out in an experiment in which VSMC and MG63 were grown at 1% FCS and with only one single form of vitamin K present (1 μmol/L).

[6] = system: vascular smooth muscle cells; test: Carboxylated matrix Gla-protein in culture medium with a single form of vitamin K; format: cell-based; details: 1% FCS, single form of vitamin K 1 μmol/L, 24 hours incubation
Protocol: as §4

[7] = system: MG63; test: Carboxylated osteocalcin in culture medium with a single form of vitamin K; format: cell-based; details: 1% FCS, single form of vitamin K 1 μmol/L, 24 hours incubation
Protocol: as §4

[8] = system: endogenous thrombin potential (ETP); test: Endogenous thrombin potential (ETP) in platelet-rich plasma of volunteers on fish oil, with or without MK-7; format: in vivo, human
Text: Twenty healthy males (43±8 years of age) were enrolled in the study. The mean body mass index was 25.1±3.5 kg/m^2. All subjects received 5 grams of fish oil (containing 35% EPA, 25% DHA and 10% other n-3 PUFA) per day during 4 months. […] Blood samples were collected in citrate every month to prepare platelet-rich plasma. The endogenous thrombin potential (ETP), reflecting the total thrombin activity during coagulation, was monitored according to H. C. Hemker et al. (Pathophysiology of Haemostasis and Thrombosis 2003; 33:4-15). Carboxylated and non-carboxylated Matrix Gla-Protein (MGP) species were monitored using sandwich ELISAs based on conformation-specific antibodies obtained from VitaK BV (Maastricht, The Netherlands) with normal pooled plasma as a reference. The ratio between carboxylated and non-carboxylated MGP is taken as a measure for vascular vitamin K status. All values are expressed as a percentage of those in the pooled reference plasma.

[9] = system: Matrix Gla-Protein (MGP); test: Carboxylated / non-carboxylated MGP in plasma by sandwich ELISA during fish oil and MK-7 intake; format: in vivo, human; details: 5 g/day fish oil plus 10 μg/day MK-7, months 2, 3 and 4
Protocol: Twenty healthy males (43±8 years of age) were enrolled in the study. The mean body mass index was 25.1±3.5 kg/m^2. All subjects received 5 grams of fish oil (containing 35% EPA, 25% DHA and 10% other n-3 PUFA) per day during 4 months. During the last 3 months of the study all volunteers received additionally one soft gel capsule per day providing 10 μg of MK-7. Blood samples were collected in citrate every month to prepare platelet-rich plasma. The endogenous thrombin potential (ETP), reflecting the total thrombin activity during coagulation, was monitored according to H. C. Hemker et al. (Pathophysiology of Haemostasis and Thrombosis 2003; 33:4-15). Carboxylated and non-carboxylated Matrix Gla-Protein (MGP) species were monitored using sandwich ELISAs based on conformation-specific antibodies obtained from VitaK BV (Maastricht, The Netherlands) with normal pooled plasma as a reference. The ratio between carboxylated and non-carboxylated MGP is taken as a measure for vascular vitamin K status. All values are expressed as a percentage of those in the pooled reference plasma.

[10] = system: osteocalcin; test: Carboxylated / non-carboxylated osteocalcin in serum during fish oil and MK-7 intake; format: in vivo, human; details: 5 g/day fish oil plus 10 μg/day MK-7, months 3 and 4
Text: In the same experiment as described above, also serum was collected, in which carboxylated and non-carboxylated osteocalcin species were monitored using the conformation-specific osteocalcin kits from Takara (Japan).

[11] = Stability of MK-7 dissolved in fish oil and krill oil; format: physicochemical; details: for time compositions remained stable: MK-7 mixed with fish oil or krill oil
Protocol: Compositions as described in Examples 2 and 4 (MK-7 dissolved in fish oil and krill oil, respectively) were prepared to a final concentration of 2 μg of MK-7 per g of oil. Samples were prepared in sealed glass bottles and kept in a dark place at room temperature, 40° C. and 100° C., respectively. At regular times, samples were taken and analyzed for their MK-7 content. No loss of MK-7 was observed, even after 2 weeks at 100° C.

[12] = system: vascular smooth muscle cells; test: Cellular MK-7 uptake in vascular smooth muscle cells; format: cell-based; details: FIG. 5D
Protocol: as §1, §2

[13] = system: MG63; test: Cellular MK-7 uptake in MG63; format: cell-based; details: FIG. 5D
Protocol: as §1, §2

[14] = system: blood clotting factor carboxylation; details: dosages as high as 100 μg per day; cited from earlier work

SMILES | stability in growth media [1] | cellular uptake compared with other K vitamins [2] | utilization of K-vitamins in the presence of warfarin (rank order) ([3]; 10 μmol/L warfarin) | interference with warfarin [3] | epoxides found without warfarin at decreased fetal calf serum [5] | Carboxylated matrix Gla-protein in the culture medium [6] [ng/mL] | Carboxylated osteocalcin in the culture medium [7] [ng/mL] | also measured
CC(C)=CCC/C(C)=C/CC/C(C)=C/CC/C(C)=C/CC/C(C)=C/CC/C(C)=C/CC/C(C)=C/CC/C(C)=C/CC/C(C)=C/CC1=C(C)C(=O)c2ccccc2C1=O [MK-9] | fairly stable | somewhat less | MK-7>MK-8>MK-9 |  |  |  |  | epoxide formation in the presence of warfarin ([3]; 10 μmol/L warfarin, FIG. 7): hardly formed
CC(C)=CCC/C(C)=C/CC/C(C)=C/CC/C(C)=C/CC1=C(C)C(=O)c2ccccc2C1=O [MK-4] |  | much less |  | interfere substantially | mainly found | 10.7 | 4.1 | K vitamin epoxides identified in the presence of warfarin [4]: could only identify MK-4 epoxide
CC(C)=CCC/C(C)=C/CC/C(C)=C/CC/C(C)=C/CC/C(C)=C/CC/C(C)=C/CC/C(C)=C/CC1=C(C)C(=O)c2ccccc2C1=O [MK-7] | fairly stable | taken up better than other K vitamins | MK-7>MK-8>MK-9 |  |  | 13.5 | 3.9 | fish-oil induced hypocoagulability (ETP) ([8]; 10 μg/day MK-7 during last 3 of 4 months on 5 g/day fish oil): not counteracted; ETP lowering effect of marine oils ([8]; MK-7 100 μg per day and higher, marine oil intake 5 grams per day): completely reversed; endogenous thrombin potential (ETP) ([8]; MK-7 between 1 and 10 μg/day, marine oil intake 5 grams per day): did not affect; change in MGP carboxylation (ratio carboxylated / non-carboxylated MGP) [9]: significance was lost; change in osteocalcin carboxylation [10]: significance was lost; loss of MK-7 content ([11]; 2 μg MK-7 per g fish oil or krill oil, sealed glass bottles, dark, room temperature, 40° C., 100° C., even after 2 weeks at 100° C.): No loss; time compositions remained stable ([11]; 40° C.): ≥ 6 months; time compositions remained stable ([11]; 100° C.): at least 2 weeks; time compositions remained stable ([11]; room temperature): ≥ 3 years; cellular uptake compared with other K vitamins (dose-response, Experiment 6) ([2]; all systems, notably extrahepatic cells, cells at 80% confluence): taken up surprisingly better than the other K vitamins; cellular uptake compared with other K vitamins (time course, Experiment 7) ([2]; all three cell systems, mixture 1 μmol/L): taken up better than any of the other vitamins; vitamin K uptake compared between cell types [12]: highest; vitamin K uptake compared between cell types [13]: lowest; effect on warfarin anticoagulation [14]: counteract the effect of warfarin
CC(C)=CCC/C(C)=C/CC/C(C)=C/CC/C(C)=C/CC/C(C)=C/CC/C(C)=C/CC/C(C)=C/CC/C(C)=C/CC1=C(C)C(=O)c2ccccc2C1=O [MK-8] | fairly stable | somewhat less | MK-7>MK-8>MK-9 |  |  |  |  | 
CC1=C(C/C=C(\C)CCC[C@H](C)CCC[C@H](C)CCCC(C)C)C(=O)c2ccccc2C1=O [K1, vitamin K1, reference compound] | fairly stable | much less |  | interfere substantially | mainly found | 12.4 | 3.2 | 
